Assay results from the supplement of paper PMC10307832.

How the values were obtained:
Experiment in all cases: relative viability (nuclei count vs DMSO), 5 days (fraction); higher = more cells survive
[1] = system: 201T
Outline: (§1)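 Lung cancer cell lines were seeded in 1536-well plates and dosed by pin tool the next day, with either a single drug or a fixed anchor-drug dose combined with five library-drug doses (not always all listed) spaced in √10 steps. Five days later, one step fixed the cells and stained their nuclei (final 0.05% Triton X-100, 1% formaldehyde, 1 ug/ml Hoechst), and nuclei were counted on 4× images. Relative viability is the nuclei count in treated wells divided by the count in vehicle wells, and each value is the median of duplicate plates.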

[2] = system: A-427
Outline: as §1

[3] = system: BEN
Outline: as §1

[4] = system: COR-L 105
Outline: as §1

[5] = system: COR-L23
Outline: as §1

[6] = system: EKVX
Outline: as §1

[7] = system: HARA
Outline: as §1

[8] = system: HCC-15
Outline: as §1

[9] = system: HCC-44
Outline: as §1

[10] = system: HCC-827
Outline: as §1

[11] = system: LK-2
Outline: as §1

[12] = system: NCI-H1437
Outline: as §1

[13] = system: NCI-H1666
Outline: as §1

[14] = system: NCI-H1792
Outline: as §1

[15] = system: NCI-H1975
Outline: as §1

[16] = system: NCI-H23
Outline: as §1

[17] = system: NCI-H358
Outline: as §1

[18] = system: NCI-H441
Outline: as §1

[19] = system: NCI-H596
Outline: as §1

[20] = system: NCI-H650
Outline: as §1

[21] = system: NCI-H838
Outline: as §1

[22] = system: SK-MES-1
Outline: as §1

## C=C1C(=O)O[C@@H](CCCCCCCC)[C@@H]1C(=O)O [C-75] + C[C@]1(O)C[C@@H](c2nc(-c3ccc4ccc(-c5ccccc5)nc4c3)c3c(N)nccn32)C1 [Linsitinib] (partner 1 µM)
[1]; first compound 0.08 µM
  relative viability: 1.01
[1]; first compound 0.253 µM
  relative viability: 1.06
[1]; first compound 0.8 µM
  relative viability: 1.1
[1]; first compound 2.53 µM
  relative viability: 1.02
[1]; first compound 8 µM
  relative viability: 1.1
[2]; first compound 0.08 µM
  relative viability: 1.16
[2]; first compound 0.253 µM
  relative viability: 1
[2]; first compound 0.8 µM
  relative viability: 1.06
[2]; first compound 2.53 µM
  relative viability: 1.07
[2]; first compound 8 µM
  relative viability: 1.09
[3]; first compound 0.08 µM
  relative viability: 0.847
[3]; first compound 0.253 µM
  relative viability: 0.982
[3]; first compound 0.8 µM
  relative viability: 0.937
[3]; first compound 2.53 µM
  relative viability: 0.873
[3]; first compound 8 µM
  relative viability: 0.854
[4]; first compound 0.08 µM
  relative viability: 0.993
[4]; first compound 0.253 µM
  relative viability: 0.928
[4]; first compound 0.8 µM
  relative viability: 0.89
[4]; first compound 2.53 µM
  relative viability: 0.946
[4]; first compound 8 µM
  relative viability: 0.886
[5]; first compound 0.08 µM
  relative viability: 0.935
[5]; first compound 0.253 µM
  relative viability: 0.907
[5]; first compound 0.8 µM
  relative viability: 0.856
[5]; first compound 2.53 µM
  relative viability: 0.632
[5]; first compound 8 µM
  relative viability: 0.909
[6]; first compound 0.08 µM
  relative viability: 1.01
[6]; first compound 0.253 µM
  relative viability: 1.05
[6]; first compound 0.8 µM
  relative viability: 0.906
[6]; first compound 2.53 µM
  relative viability: 0.96
[6]; first compound 8 µM
  relative viability: 0.908
[7]; first compound 0.08 µM
  relative viability: 0.861
[7]; first compound 0.253 µM
  relative viability: 0.954
[7]; first compound 0.8 µM
  relative viability: 0.915
[7]; first compound 8 µM
  relative viability: 0.97
[8]; first compound 0.08 µM
  relative viability: 0.926
[8]; first compound 0.253 µM
  relative viability: 0.978
[8]; first compound 0.8 µM
  relative viability: 0.924
[8]; first compound 2.53 µM
  relative viability: 0.847
[8]; first compound 8 µM
  relative viability: 0.902
[9]; first compound 0.08 µM
  relative viability: 0.598
[9]; first compound 0.253 µM
  relative viability: 0.633
[9]; first compound 0.8 µM
  relative viability: 0.618
[9]; first compound 2.53 µM
  relative viability: 0.453
[9]; first compound 8 µM
  relative viability: 0.667
[10]; first compound 0.08 µM
  relative viability: 0.884
[10]; first compound 0.253 µM
  relative viability: 0.92
[10]; first compound 0.8 µM
  relative viability: 1
[10]; first compound 2.53 µM
  relative viability: 0.972
[10]; first compound 8 µM
  relative viability: 0.923
[11]; first compound 0.08 µM
  relative viability: 0.416
[11]; first compound 0.253 µM
  relative viability: 0.785
[11]; first compound 0.8 µM
  relative viability: 0.607
[11]; first compound 2.53 µM
  relative viability: 0.514
[11]; first compound 8 µM
  relative viability: 0.369
[12]; first compound 0.08 µM
  relative viability: 1.03
[12]; first compound 0.253 µM
  relative viability: 1
[12]; first compound 0.8 µM
  relative viability: 1.04
[12]; first compound 2.53 µM
  relative viability: 1.01
[12]; first compound 8 µM
  relative viability: 1.04
[13]; first compound 0.08 µM
  relative viability: 0.79
[13]; first compound 0.253 µM
  relative viability: 1.01
[13]; first compound 0.8 µM
  relative viability: 0.816
[13]; first compound 2.53 µM
  relative viability: 0.858
[13]; first compound 8 µM
  relative viability: 0.644
[14]; first compound 0.08 µM
  relative viability: 0.527
[14]; first compound 0.253 µM
  relative viability: 0.486
[14]; first compound 0.8 µM
  relative viability: 0.471
[14]; first compound 2.53 µM
  relative viability: 0.377
[14]; first compound 8 µM
  relative viability: 0.544
[15]; first compound 0.08 µM
  relative viability: 0.958
[15]; first compound 0.253 µM
  relative viability: 1.02
[15]; first compound 0.8 µM
  relative viability: 0.945
[15]; first compound 2.53 µM
  relative viability: 0.897
[15]; first compound 8 µM
  relative viability: 0.898
[16]; first compound 0.08 µM
  relative viability: 0.541
[16]; first compound 0.253 µM
  relative viability: 0.784
[16]; first compound 0.8 µM
  relative viability: 0.506
[16]; first compound 2.53 µM
  relative viability: 0.557
[16]; first compound 8 µM
  relative viability: 0.561
[17]; first compound 0.08 µM
  relative viability: 0.734
[17]; first compound 0.253 µM
  relative viability: 0.823
[17]; first compound 0.8 µM
  relative viability: 0.7
[17]; first compound 2.53 µM
  relative viability: 0.602
[17]; first compound 8 µM
  relative viability: 0.737
[18]; first compound 0.08 µM
  relative viability: 0.476
[18]; first compound 0.253 µM
  relative viability: 0.592
[18]; first compound 0.8 µM
  relative viability: 0.373
[18]; first compound 2.53 µM
  relative viability: 0.48
[18]; first compound 8 µM
  relative viability: 0.442
[19]; first compound 0.08 µM
  relative viability: 1.01
[19]; first compound 0.253 µM
  relative viability: 1.09
[19]; first compound 0.8 µM
  relative viability: 1.01
[19]; first compound 2.53 µM
  relative viability: 0.911
[19]; first compound 8 µM
  relative viability: 1.03
[20]; first compound 0.08 µM
  relative viability: 0.922
[20]; first compound 0.253 µM
  relative viability: 0.801
[20]; first compound 0.8 µM
  relative viability: 0.608
[20]; first compound 2.53 µM
  relative viability: 0.718
[20]; first compound 8 µM
  relative viability: 0.766
[21]; first compound 0.08 µM
  relative viability: 0.935
[21]; first compound 0.253 µM
  relative viability: 0.706
[21]; first compound 0.8 µM
  relative viability: 1.01
[21]; first compound 2.53 µM
  relative viability: 0.943
[21]; first compound 8 µM
  relative viability: 0.836
[22]; first compound 0.08 µM
  relative viability: 1.1
[22]; first compound 0.253 µM
  relative viability: 0.935
[22]; first compound 0.8 µM
  relative viability: 1.02
[22]; first compound 8 µM
  relative viability: 1.05
